In ChEMBL document CHEMBL5725892, “Triazolo[4,5-D]pyrimidine derivatives” (2017) one finds EC50 data, which are given here for one molecule.

The structures appear in SMILES notation. pEC50: −log10 of the molar value.

The test addresses Cannabinoid receptor 2 (Homo sapiens, UniProt P34972). As to the kind of experiment: cAMP Assay: CHO cells expressing human CB1 or CB2 receptors are seeded 17-24 hours prior to the experiment 50.000 cells per well in a black 96 well plate with flat clear bottom (Corning Costar #3904) in DMEM (Invitrogen No. 31331), 1×HT supplement, with 10% fetal calf serum and incubated at 5% CO2 and 37° C. in a humidified incubator. The growth medium was exchanged with Krebs Ringer Bicarbonate buffer with 1 mM IBMX and incubated at 30° C. for 30 min. Compounds were added to a final assay volume of 100 μl and incubated for 30 min at 30° C. Using the cAMP-Nano-TRF detection kit the assay (Roche Diagnostics) was stopped by the addition of 50 μl lysis reagent (Tris, NaCl, 1.5% Triton X100, 2.5% NP40, 10% NaN3) and 50 μl detection solutions (20 μM mAb Alexa700-cAMP 1:1, and 48 μM Ruthenium-2-AHA-cAMP) and shaken for 2 h at room temperature. The time-resolved energy transfer is measured by a TRF reader (Evotec Technologies GmbH), equipped with a ND:YAG laser as excitation source. The plate is measured twice with the excitation at 355 nm and at the emission with a delay of 100 ns and a gate of 100 ns, total exposure time 10 s at 730 (bandwidth 30 nm) or 645 nm (bandwidth 75 nm), respectively. […].

Usually pEC50 stands for the negative decadic logarithm of the EC50, by convention in mol/L. High values mean a low EC50, low ones a high EC50.

Chain of Cannabinoid receptor 2 (P34972 whole entry): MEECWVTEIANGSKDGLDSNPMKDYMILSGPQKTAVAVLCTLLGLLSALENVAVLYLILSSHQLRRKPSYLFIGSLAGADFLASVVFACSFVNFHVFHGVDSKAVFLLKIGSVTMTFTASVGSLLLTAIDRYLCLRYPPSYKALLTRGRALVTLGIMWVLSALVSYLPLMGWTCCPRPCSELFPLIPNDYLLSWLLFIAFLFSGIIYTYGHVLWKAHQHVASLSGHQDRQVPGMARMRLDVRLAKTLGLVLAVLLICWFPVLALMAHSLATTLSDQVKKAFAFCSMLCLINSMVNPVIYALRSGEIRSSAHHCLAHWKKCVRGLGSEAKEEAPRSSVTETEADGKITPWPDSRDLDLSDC

With `CC(=O)N[C@H]1CCN(c2nc(O[C@@H](C)C(F)(F)F)nc3c2nnn3Cc2ccccc2C(F)(F)F)C1`, the pEC50 was 7.10.
